Reference: patent publication US10583119B2, “Compounds, compositions and methods for making the same” (Signum Biosciences, Inc., priority 2008, dated 2020)
pIC50: −log10 of the molar value.

How the values were obtained:
PP2A = molecular target: T1, PP2A (Homo sapiens, UniProt P67775); assay: Phosphatase activity of PP2A using phosphorylase a as substrate; type: biochemical; details: un-methylated PP2A, protein substrate phosphorylase a, absence of ME and MT
T1 construct: made in house
Procedure: After the reaction, proteins were precipitated by 50% (NH4)2SO4 (final concentration) twice, and collected by centrifugation. The pellet was re-dissolved and dialyzed in a buffer containing 50 mM Tris-HCl (pH6.9) and ImM DTT for 2×2 L at 4° C. overnight. Phosphorylase a (phospho-phosphorylase b) crystallized during the dialysis. The dialysate was centrifuged 14,000 r.p.m at 4° C. for 30 minutes, the supernatant was removed and purified ^32P-labelled phosphorylase a was re-dissolved in +50% glycerol, and stored at −20° C.
To measure PP2A's phosphatase activity, PP2A (5-20 nM) was incubated with phosphorylase a (5-10 μM) at 37° C. 10% TCA (final concentration) and was added to the reaction to precipitate proteins. Supernatant that contains free ^32P-phosphate group was added into scintillation counting solution (Ecoscint, National Diagnostics), and counted by scintillation counter (LS 6000SE, Beckman).

[1] = molecular target: T2, protein phosphatase specific protein methylesterase (MEase) (Homo sapiens, UniProt Q9Y570); assay: PP2A demethylation with [3H]-SAM and purified proteins (methylesterase activity); type: biochemical; details: purified methylated PP2A and MEase; read-out: ME (IC50)
T2 construct: made in house
T2 sequence (Q9Y570 1-386): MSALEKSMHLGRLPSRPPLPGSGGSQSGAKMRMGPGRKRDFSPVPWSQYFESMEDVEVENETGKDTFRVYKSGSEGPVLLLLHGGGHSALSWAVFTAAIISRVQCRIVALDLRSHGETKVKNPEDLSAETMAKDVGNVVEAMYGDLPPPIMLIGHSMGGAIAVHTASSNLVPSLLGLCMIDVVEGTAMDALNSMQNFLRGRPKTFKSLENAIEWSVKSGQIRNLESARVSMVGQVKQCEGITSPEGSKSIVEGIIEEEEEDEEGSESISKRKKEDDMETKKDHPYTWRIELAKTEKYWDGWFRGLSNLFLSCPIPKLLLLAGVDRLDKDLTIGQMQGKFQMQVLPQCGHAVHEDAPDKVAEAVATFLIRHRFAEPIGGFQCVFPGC
Procedure: PP2A (methylated and unmethylated) were eluted with 1.6 mL of Buffer A containing 350 mM NaCl. Fractions (0.2 mL each) were collected and the radioactivity in each fraction was measured using the scintillation counter (LS 6000SE, Beckman). Fractions with highest radioactivity were containing purified methylated PP2A were pooled with a total volume of 0.6 mL-0.8 mL. Purified methylated PP2A (50 nM-100 nM) was incubated with MEase (5 nM-20 nM) in 20 μl-50 μl reaction at room temperature for 30 minutes. The reaction was terminated by adding TCA (2 μl-6 μl) to a final concentration of 10%. Released [^3H]-methanol in supernatants was counted with scintillation counter (LS 6000SE, Beckman).

Ob/Ob Mice = assay: Non-fasted glucose levels in ob/ob mice; type: in vivo
Text: They are also hypometabolic and hypothermic. The obesity is characterized by an increase in both the number and the size of adipocytes. Although hyperphagia contributes to the obesity, homozygotes gain excess weight and deposit excess fat even when restricted to a diet sufficient for normal weight maintenance in lean mice. Mice heterozygous for the Lep^ob mutation appear like wild-type and are lean.
Forty-eight (48) B6.V-Lep^ob/J mice (00632, The Jackson Laboratory, JAX^6 mice), homozygous for the Lep^ob mutation and thirty six (36) controls B6.V-Lep^ob/J-lean, heterozygous for the Lep^ob mutation were used to study the effect of SIG1012 on non-fasted glucose levels. The mice were ear notched for identification and housed in individually and positively ventilated polycarbonate cages with HEPA filtered air at a density of 3 mice per cage. Bed-o-cob corn cob bedding was used and cages were changed every two weeks. The animal room was lighted entirely with artificial fluorescent lighting, with a controlled 12 h light/dark cycle (7 am to 7 pm light). The normal temperature and relative humidity ranges in the animal rooms were 22±4° C. and 50±15%, respectively. The animal rooms were set to have 15 air exchanges per hour. Filtered tap water, acidified to a pH of 2.8 to 3.2, and LabDiet AIN-76A was provided ad libitum.
Following acclimation, mice were assigned to groups A through G according to their body weight and genotype:
A Lean heterozygotes—B6.V-Lep^ob/J-lean Mice Fed Control Diet (AIN-76A);
B Lean heterozygotes—B6.V-Lep^ob/J-lean Mice Fed “Low” Compound I-63 (AIN-76A with 0.001% Compound I-63);
C Lean heterozygotes—B6.V-Lep^ob/J-lean Mice Fed “Medium” Compound I-63 (AIN-76A with 0.1% Compound I-63);
D Obese homozygotes—B6. V-Lep^ob/J Mice Fed Control Diet (AIN-76A);
E Obese homozygotes—B6N-Lep^ob/J Mice Fed “Low” Compound I-63 (AIN-76A with 0.001% Compound I-63); […]
Mice from Groups A through G were maintained on the respective diet for 14 days and blood glucose levels were measured weekly.

T1 sequence (P67775 whole entry): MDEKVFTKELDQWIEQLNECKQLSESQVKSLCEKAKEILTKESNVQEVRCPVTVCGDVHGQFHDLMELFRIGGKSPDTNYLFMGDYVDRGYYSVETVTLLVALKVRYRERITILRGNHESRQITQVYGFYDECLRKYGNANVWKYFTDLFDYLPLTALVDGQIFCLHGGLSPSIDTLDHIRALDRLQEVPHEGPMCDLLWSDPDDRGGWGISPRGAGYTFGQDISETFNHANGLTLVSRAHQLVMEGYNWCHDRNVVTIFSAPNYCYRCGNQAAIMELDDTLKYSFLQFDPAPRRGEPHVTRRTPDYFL
T1 sequence (P30153 whole entry partner): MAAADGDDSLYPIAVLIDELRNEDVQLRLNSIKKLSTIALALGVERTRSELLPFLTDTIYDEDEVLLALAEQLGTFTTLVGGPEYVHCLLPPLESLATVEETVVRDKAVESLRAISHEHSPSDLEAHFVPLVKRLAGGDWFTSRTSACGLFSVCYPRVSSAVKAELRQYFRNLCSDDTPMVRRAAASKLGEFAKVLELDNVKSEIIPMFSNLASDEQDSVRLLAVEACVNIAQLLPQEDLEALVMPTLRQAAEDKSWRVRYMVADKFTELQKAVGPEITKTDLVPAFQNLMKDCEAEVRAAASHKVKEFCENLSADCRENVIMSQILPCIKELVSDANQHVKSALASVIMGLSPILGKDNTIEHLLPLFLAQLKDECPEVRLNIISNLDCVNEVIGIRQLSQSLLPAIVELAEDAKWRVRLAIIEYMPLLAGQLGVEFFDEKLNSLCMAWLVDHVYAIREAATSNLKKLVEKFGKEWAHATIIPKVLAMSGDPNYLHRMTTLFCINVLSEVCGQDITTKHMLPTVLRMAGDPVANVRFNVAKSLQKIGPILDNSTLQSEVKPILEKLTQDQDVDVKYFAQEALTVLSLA

Compound: CCCCCCCCCCCCCCCCCCCC(=O)NCCc1c[nH]c2ccc(O)cc12 [Compound I-63, N-(2-(5-hydroxy-1H-indol-3-yl)ethyl)icosanamide]
- pIC50 (PP2A): < 4.00
- pIC50 [1]: > 5.00
- effect on non-fasted blood glucose levels (Ob/Ob Mice; heterozygous lean mice control): No effect
- reduction in non-fasted blood glucose levels (Ob/Ob Mice; homozygous obese mice, compound in diet for 14 days): 26-30%
